Results: patent US20240308996A1, “PYRIDOPYRIDINES AND DERIVATIVES THEREOF AS SELECTIVE KINASE INHIBITORS” (University of Sharjah, priority 2023, published 2024)

Assays:
Format in all cases: cell-based
K-562 = experiment: NCI-60 cell line panel: K-562; set-up: TGI: unit not given here; conditions: for IC50: Homo sapiens, K562, Leukemia; for TGI: Leukemia, total growth inhibition
Protocol: (§1) It was carried out at the NCI, Bethesda, MD, USA, utilizing their standard protocol.

MOLT-4 = experiment: NCI-60 cell line panel: MOLT-4; set-up: TGI: unit not given here; conditions: Leukemia; for IC50: Homo sapiens; for TGI: total growth inhibition
Protocol: as §1

RPMI-8226 = experiment: NCI-60 cell line panel: RPMI-8226; conditions: Leukemia; for IC50: Homo sapiens; for TGI: total growth inhibition
Protocol: as §1

SR = experiment: NCI-60 cell line panel: SR; conditions: Leukemia; for IC50: Homo sapiens; for TGI: total growth inhibition
Protocol: as §1

A549/ATCC = experiment: NCI-60 cell line panel: A549/ATCC; conditions: Non-Small Cell Lung Cancer; for IC50: Homo sapiens; for TGI: total growth inhibition
Protocol: as §1

EKVX = experiment: NCI-60 cell line panel: EKVX; conditions: Non-Small Cell Lung Cancer; for IC50: Homo sapiens; for TGI: total growth inhibition, in µM (unit assumed)
Protocol: as §1

NCI-H226 = experiment: NCI-60 cell line panel: NCI-H226; conditions: Non-Small Cell Lung Cancer; for IC50: Homo sapiens; for TGI: total growth inhibition
Protocol: as §1

NCI-H322M = experiment: NCI-60 cell line panel: NCI-H322M; conditions: Non-Small Cell Lung Cancer; for IC50: Homo sapiens; for TGI: total growth inhibition
Protocol: as §1

NCI-H522 = experiment: NCI-60 cell line panel: NCI-H522; set-up: TGI: unit not given here; conditions: Non-Small Cell Lung Cancer; for IC50: Homo sapiens; for TGI: total growth inhibition
Protocol: as §1

HT29 = experiment: NCI-60 cell line panel: HT29; conditions: for TGI: Colon Cancer, total growth inhibition; for IC50: Homo sapiens, HT-29, Colon Cancer
Protocol: as §1

SW-620 = experiment: NCI-60 cell line panel: SW-620; conditions: Colon Cancer; for TGI: total growth inhibition; for IC50: Homo sapiens
Protocol: as §1

SF-268 = experiment: NCI-60 cell line panel: SF-268; conditions: CNS Cancer; for TGI: total growth inhibition; for IC50: Homo sapiens
Protocol: as §1

SF-295 = experiment: NCI-60 cell line panel: SF-295; conditions: CNS Cancer; for TGI: total growth inhibition, unit assumed; for IC50: Homo sapiens
Protocol: as §1

SF-539 = experiment: NCI-60 cell line panel: SF-539; conditions: CNS Cancer; for TGI: total growth inhibition; for IC50: Homo sapiens
Protocol: as §1

SNB-75 = experiment: NCI-60 cell line panel: SNB-75; set-up: TGI: unit not given here; conditions: CNS Cancer; for TGI: total growth inhibition; for IC50: Homo sapiens
Protocol: as §1

U251 = experiment: NCI-60 cell line panel: U251; set-up: TGI: unit not given here; conditions: for TGI: CNS Cancer, total growth inhibition; for IC50: Homo sapiens, U-251, CNS Cancer
Protocol: as §1

LOX IMVI = experiment: NCI-60 cell line panel: LOX IMVI; conditions: Melanoma; for IC50: Homo sapiens; for TGI: total growth inhibition
Protocol: as §1

MALME-3M = experiment: NCI-60 cell line panel: MALME-3M; conditions: Melanoma; for IC50: Homo sapiens; for TGI: total growth inhibition, in µM (unit assumed)
Protocol: as §1

M14 = experiment: NCI-60 cell line panel: M14; conditions: Melanoma; for IC50: Homo sapiens; for TGI: total growth inhibition
Protocol: as §1

SK-MEL-2 = experiment: NCI-60 cell line panel: SK-MEL-2; set-up: TGI: unit not given here; conditions: Melanoma; for IC50: Homo sapiens; for TGI: total growth inhibition
Protocol: as §1

IGROV1 = experiment: NCI-60 cell line panel: IGROV1; conditions: for IC50: Homo sapiens, IGROV-1, Ovarian Cancer; for TGI: Ovarian Cancer, total growth inhibition
Protocol: as §1

OVCAR-3 = experiment: NCI-60 cell line panel: OVCAR-3; conditions: Ovarian Cancer; for IC50: Homo sapiens; for TGI: total growth inhibition
Protocol: as §1

OVCAR-5 = experiment: NCI-60 cell line panel: OVCAR-5; conditions: Ovarian Cancer; for IC50: Homo sapiens; for TGI: total growth inhibition
Protocol: as §1

SK-OV-3 = experiment: NCI-60 cell line panel: SK-OV-3; conditions: Ovarian Cancer; for IC50: Homo sapiens; for TGI: total growth inhibition
Protocol: as §1

A498 = experiment: NCI-60 cell line panel: A498; conditions: Renal Cancer; for IC50: Homo sapiens; for TGI: total growth inhibition
Protocol: as §1

ACHN = experiment: NCI-60 cell line panel: ACHN; conditions: Renal Cancer; for IC50: Homo sapiens; for TGI: total growth inhibition
Protocol: as §1

SN12C = experiment: NCI-60 cell line panel: SN12C; conditions: Renal Cancer; for IC50: Homo sapiens; for TGI: total growth inhibition
Protocol: as §1

TK-10 = experiment: NCI-60 cell line panel: TK-10; conditions: Renal Cancer; for IC50: Homo sapiens; for TGI: total growth inhibition
Protocol: as §1

UO-31 = experiment: NCI-60 cell line panel: UO-31; set-up: TGI: unit not given here; conditions: Renal Cancer; for IC50: Homo sapiens; for TGI: total growth inhibition
Protocol: as §1

MDA-MB-231/ATCC = experiment: NCI-60 cell line panel: MDA-MB-231/ATCC; conditions: Breast Cancer; for TGI: total growth inhibition; for IC50: Homo sapiens
Protocol: as §1

T-47D = experiment: NCI-60 cell line panel: T-47D; conditions: Breast Cancer; for TGI: total growth inhibition; for IC50: Homo sapiens, T47D
Protocol: as §1

Hep3B = experiment: MTT assay, Hep3B HCC cell line; conditions: Homo sapiens, 48 h, mean of triplicate assays ± SEM
Protocol: Two HCC cell lines (Hep3B and HepG2) were used for screening the antiproliferative activity of the synthesized compounds. The cell lines were obtained from the European Collection of Cell Cultures (ECACC, UK) and maintained in Dulbecco's Modified Eagle Medium (DMEM: Sigma-Aldrich) supplemented with 10% fetal bovine serum (FBS) and 1% penicillin/streptomycin and incubated at 37° C. in a 5% CO2 air atmosphere. In addition, WI-38 normal cell line was used to investigate the safety of these compounds.
MTT assay was conducted to calculate the IC50 of the compounds following the reported procedure . Briefly, the cells were seeded in 96-well tissue culture plates with a density of 5×10^4 cells/well and incubated overnight at 37° C. in a 5% CO2 air atmosphere. […] DMSO was used as a negative control. After 48 h, the media were aspirated, and replaced with media containing 0.5 mg/mL of MTT tetrazolium dye (Sigma-Aldrich) for 2 h at 37° C. Finally, the media were removed and 200 μL of DMSO was added to solubilize the formazan crystals. Absorbance was then measured at 570 nm using Varioskan Flash multimode plate reader (Thermo Scientific, Massachusetts, USA).

## CC(C)NC(=O)c1cc(-c2ccc(NC(=O)Nc3ccc(N4CCN(C)CC4)c(C(F)(F)F)c3)cc2)nc2cccnc12 [Compound 13e, N-Isopropyl-2-(4-(3-(4-(4-methylpiperazin-1-yl)-3-(trifluoromethyl)phenyl)ureido)phenyl)-1,5-naphthyridine-4-carboxamide]
K-562
  IC50: 920 nM
  TGI: >38.8
MOLT-4
  IC50: 760 nM
  TGI: 2.89
RPMI-8226
  IC50: 980 nM
  TGI: 3480 nM
SR
  IC50: 1000 nM
  TGI: 3190 nM
A549/ATCC
  IC50: 730 nM
  TGI: 1640 nM
EKVX
  IC50: 770 nM
  TGI: 1.49
NCI-H226
  IC50: 5600 nM
  TGI: 14700 nM
NCI-H322M
  IC50: 710 nM
  TGI: 1550 nM
NCI-H522
  IC50: 670 nM
  TGI: 1.37
HT29
  TGI: 1370 nM
  IC50: 670 nM
SW-620
  TGI: 1300 nM
  IC50: 680 nM
SF-268
  TGI: 1620 nM
  IC50: 700 nM
SF-295
  TGI: 1130 nM
  IC50: 570 nM
SF-539
  TGI: 990 nM
  IC50: 500 nM
SNB-75
  TGI: 3.97
  IC50: 590 nM
U251
  TGI: 1.34
  IC50: 670 nM
LOX IMVI
  IC50: 620 nM
  TGI: 1150 nM
MALME-3M
  IC50: 640 nM
  TGI: 1.18
M14
  IC50: 670 nM
  TGI: 1410 nM
SK-MEL-2
  IC50: 1000 nM
  TGI: 2.60
IGROV1
  IC50: 740 nM
  TGI: 1390 nM
OVCAR-3
  IC50: 650 nM
  TGI: 1330 nM
OVCAR-5
  IC50: 650 nM
  TGI: 1230 nM
SK-OV-3
  IC50: 2930 nM
  TGI: 8230 nM
A498
  IC50: 4710 nM
  TGI: 9610 nM
ACHN
  IC50: 640 nM
  TGI: 1180 nM
SN12C
  IC50: 680 nM
  TGI: 1260 nM
TK-10
  IC50: 710 nM
  TGI: 1310 nM
UO-31
  IC50: 590 nM
  TGI: 1.11
MDA-MB-231/ATCC
  TGI: 1260 nM
  IC50: 670 nM
T-47D
  TGI: 24700 nM
  IC50: 7620 nM
Hep3B
  IC50: 1760 ± 10 nM

## CCN1CCN(c2ccc(NC(=O)Nc3ccc(-c4cc(C(=O)NC(C)C)c5ncccc5n4)cc3)cc2C(F)(F)F)CC1 [Compound 13f, 2-(4-(3-(4-(4-Ethylpiperazin-1-yl)-3-(trifluoromethyl)phenyl)ureido)phenyl)-N-isopropyl-1,5-naphthyridine-4-carboxamide]
K-562
  IC50: 1000 nM
  TGI: >34.5
MOLT-4
  IC50: 1110 nM
  TGI: 30.60
RPMI-8226
  IC50: 1040 nM
  TGI: > 34500 nM
SR
  IC50: 1050 nM
  TGI: 12100 nM
A549/ATCC
  IC50: 1140 nM
  TGI: 5770 nM
EKVX
  IC50: 1610 nM
  TGI: 5.82
NCI-H226
  IC50: 5020 nM
  TGI: 12500 nM
NCI-H322M
  IC50: 1850 nM
  TGI: 7240 nM
NCI-H522
  IC50: 3520 nM
  TGI: 8.43
HT29
  TGI: 1320 nM
  IC50: 670 nM
SW-620
  TGI: 1260 nM
  IC50: 640 nM
SF-268
  TGI: 10900 nM
  IC50: 3560 nM
SF-295
  TGI: 1140 nM
  IC50: 580 nM
SF-539
  TGI: 1020 nM
  IC50: 530 nM
SNB-75
  TGI: 5.14
  IC50: 980 nM
U251
  TGI: 4.82
  IC50: 1240 nM
LOX IMVI
  IC50: 560 nM
  TGI: 1050 nM
MALME-3M
  IC50: 580 nM
  TGI: 1.05
M14
  IC50: 720 nM
  TGI: 1900 nM
SK-MEL-2
  IC50: 4820 nM
  TGI: 9.89
IGROV1
  IC50: 1420 nM
  TGI: 5110 nM
OVCAR-3
  IC50: 640 nM
  TGI: 1360 nM
OVCAR-5
  IC50: 1600 nM
  TGI: 6090 nM
SK-OV-3
  IC50: 5330 nM
  TGI: 1080 nM
A498
  IC50: 5110 nM
  TGI: 9700 nM
ACHN
  IC50: 1020 nM
  TGI: 3470 nM
SN12C
  IC50: 670 nM
  TGI: 1380 nM
TK-10
  IC50: 1350 nM
  TGI: 4870 nM
UO-31
  IC50: 2180 nM
  TGI: 6.81
MDA-MB-231/ATCC
  TGI: 1180 nM
  IC50: 610 nM
T-47D
  TGI: 8740 nM
  IC50: 1930 nM
Hep3B
  IC50: 1090 ± 140 nM
